From US8513232B2, “Substituted spirocyclic piperidine derivatives as histamine-3 (H3) receptor ligands” (Cephalon, Inc., priority 2008, dated 2013)
Several values for one entry are separate records, joined by “and”; a condition that tells them apart may be missing. Equal entries are not always repeated. Where two headings read alike, the source gives them in different places. Each block holds one molecule with its values, some of them ahead of it.

Assays:
human H3 receptor = biological target: T1, human H3 receptor (Homo sapiens, UniProt Q9Y5N1); test: Human H3 radioligand binding ([3H]-N-alpha-methylhistamine, SPA)
T1 construct: expressed in transfected cells
Outline: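 Compounds (0.01 nM-30 μM) competed with approximately 1 nM [3H]-N-alpha-methylhistamine for human H3 receptor in membranes of stably transfected CHO cells, 10 μg protein per well, in Tris-HCl pH 7.4/MgCl2/BSA buffer for 4 h at room temperature. Bound radioligand measured by scintillation proximity; 10 μM clobenpropit gave non-specific binding.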

[1] = biological target: T2, rat histamine H3 receptor (Rattus norvegicus, UniProt Q9QYN8); test: Rat H3 radioligand binding ([3H]-N-alpha-methylhistamine, SPA)
T2 construct: encoding the entire 445-amino-acid rat histamine H3 receptor; expressed in transfected cells; membrane preparation
Outline: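 SPA-bead binding assay using [3H]-N-alpha-methylhistamine (approximately 1 nM final) with test compounds from 0.01 nM to 30 μM. Rat H3 receptor membranes came from stably transfected CHO-A3 cells; incubation ran 4 h at room temperature, in the dark, in Tris pH 7.4 buffer with MgCl2 and BSA. Clobenpropit (10 μM) gave non-specific binding.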

[2] = Table A, human H3 binding, read-out: Human Ki
[3] = Table A, rat H3 binding, read-out: Rat Ki
[4] = human H3 binding, Table D, read-out: Human H3 Ki
[5] = rat H3 binding, Table D, read-out: Rat H3 Ki
[6] = Human H3 binding, Table B, Examples 136-362, read-out: hum H3 binding Ki
[7] = Rat H3 binding, Table B, Examples 136-362, read-out: rat H3 binding Ki
[8] = Table C, human H3 binding, read-out: Human H3 Ki
[9] = Table C, rat H3 binding, read-out: Rat H3 Ki

T2 sequence (Q9QYN8 whole entry): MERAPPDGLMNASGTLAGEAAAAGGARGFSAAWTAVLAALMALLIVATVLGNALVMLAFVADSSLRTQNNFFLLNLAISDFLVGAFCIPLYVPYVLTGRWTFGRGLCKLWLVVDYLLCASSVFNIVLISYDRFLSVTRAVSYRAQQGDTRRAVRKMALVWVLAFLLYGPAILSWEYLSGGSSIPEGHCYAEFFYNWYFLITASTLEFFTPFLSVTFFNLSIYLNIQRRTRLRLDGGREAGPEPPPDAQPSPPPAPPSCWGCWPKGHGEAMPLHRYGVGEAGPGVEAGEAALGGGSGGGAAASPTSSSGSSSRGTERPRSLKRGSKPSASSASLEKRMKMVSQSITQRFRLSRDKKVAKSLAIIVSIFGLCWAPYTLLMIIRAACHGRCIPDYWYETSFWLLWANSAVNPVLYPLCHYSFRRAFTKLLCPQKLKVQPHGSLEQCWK
T1 sequence (Q9Y5N1 whole entry): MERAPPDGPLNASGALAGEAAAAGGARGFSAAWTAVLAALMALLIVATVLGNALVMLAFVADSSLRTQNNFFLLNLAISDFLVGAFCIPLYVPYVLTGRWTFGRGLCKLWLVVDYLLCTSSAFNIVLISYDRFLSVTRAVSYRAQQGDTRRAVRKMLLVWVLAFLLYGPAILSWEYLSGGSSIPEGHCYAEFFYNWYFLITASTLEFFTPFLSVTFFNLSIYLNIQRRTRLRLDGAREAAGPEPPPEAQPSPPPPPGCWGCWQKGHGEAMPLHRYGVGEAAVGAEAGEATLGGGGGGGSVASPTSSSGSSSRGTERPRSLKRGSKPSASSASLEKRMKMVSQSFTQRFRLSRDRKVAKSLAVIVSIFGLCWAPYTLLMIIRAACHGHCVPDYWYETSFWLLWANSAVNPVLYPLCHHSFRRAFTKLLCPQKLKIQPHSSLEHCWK

Ki (human H3 receptor; [2]): < 0.2 µM | Ki [1, 3]: < 0.2 µM | melting point: 184 to 186 °C
Structure (SMILES): O=C(NC[C@H]1CCCO1)c1ccc(-c2ccc3c(c2)COC2(CCN(C4CCC4)CC2)O3)cc1 [Example 67]

Ki (human H3 receptor; [4]): < 0.2 µM | Ki [1, 5]: < 0.2 µM | melting point: 254 to 255 °C
Structure (SMILES): O=c1cc(-c2ccc3c(c2)COC2(CCN(C4CCC4)CC2)O3)c(F)c[nH]1 [Example 766]

Ki (human H3 receptor; read-out: Human H3 Ki): < 0.2 µM | Ki ([1]; read-out: Rat H3 kI): < 0.2 µM | melting point: 162 to 163 °C
Structure (SMILES): C1=C(c2ccc3c(c2)COC2(CCN(C4CCC4)CC2)O3)CCSC1 [Example 466]

Ki (human H3 receptor; [4]): < 0.2 µM | Ki [1, 5]: < 0.2 µM | melting point: 166 to 167 °C
Structure (SMILES): O=C(c1ccc(-c2ccc3c(c2)COC2(CCN(C4CCC4)CC2)O3)s1)N1CCOCC1 [Example 643]

Ki (human H3 receptor; [4]): < 0.2 µM | Ki [1, 5]: < 0.2 µM | melting point: 155 to 157 °C
Structure (SMILES): O=C(NC[C@H]1CCCO1)c1ccc(-c2ccc3c(c2)COC2(CCN(C4CCC4)CC2)O3)cc1Cl [Example 579]

Ki (human H3 receptor; [6]): < 0.2 µM | Ki [1, 7]: < 0.2 µM | melting point: 174 to 176.2 °C
Structure (SMILES): CNC(=O)c1ccc(-c2ccc3c(c2)COC2(CCN(C4CCC4)CC2)O3)cc1C [Example 205]

Ki (human H3 receptor; [4]): < 0.2 µM | Ki [1, 5]: < 0.2 µM | melting point: 233 to 235 °C
Structure (SMILES): COc1ncc(-c2ccc3c(c2)COC2(CCN(C4CCC4)CC2)O3)c(C)c1C [Example 800]

Ki (human H3 receptor; [8]): < 0.2 µM | Ki [1, 9]: < 0.2 µM | melting point: 159 to 161 °C
Structure (SMILES): Cc1cccc(N2CCN(c3ccc4c(c3)CCC3(CCN(C5CCC5)CC3)O4)CC2)n1 [Example 366]

Ki (human H3 receptor; [6]): < 0.2 µM | Ki [1, 7]: < 0.2 µM | melting point: 101 to 102 °C
Structure (SMILES): CC(=O)N(Cc1ccsc1)c1ccc2c(c1)COC1(CCN(C3CCC3)CC1)O2 [Example 352]

Ki (human H3 receptor; [4]): 0.2 to 1 µM | Ki [1, 5]: 0.2 to 1 µM | melting point: 139 to 141 °C
Structure (SMILES): COc1ccc(-c2ccc3c(c2)COC2(CCN(C4CCOC4)CC2)O3)cn1 (stereo not drawn) [Example 725]

Ki (human H3 receptor; [6]): < 0.2 µM | Ki [1, 7]: < 0.2 µM | melting point: 206.5 to 207.5 °C
Structure (SMILES): CC(C)NC(=O)N1CCN(c2ccc3c(c2)COC2(CCN(C4CCC4)CC2)O3)CC1 [Example 279]

Ki (human H3 receptor; read-out: Human H3 Ki): < 0.2 µM | Ki ([1]; read-out: Rat H3 kI): < 0.2 µM | melting point: 137 to 139 °C
Structure (SMILES): CCOC(=O)C1CC=C(c2ccc3c(c2)CCC2(CCN(C4CCC4)CC2)O3)CC1 (stereo not drawn) [Example 455]

Ki (human H3 receptor; [2]): < 0.2 µM | Ki [1, 3]: 0.2 to 1 µM | melting point: 187 to 188 °C
Structure (SMILES): O=C1CCCN1c1ccc2c(c1)COC1(CCN(C3CCC3)CC1)O2 [Example 78]

Ki (human H3 receptor; [6]): < 0.2 µM | Ki [1, 7]: < 0.2 µM | melting point: 120 to 122 °C
Structure (SMILES): O=C1C[C@@H](O)CN1c1ccc2c(c1)COC1(CCN(C3CCC3)CC1)O2 [Example 139]

Ki (human H3 receptor; [8]): < 0.2 µM | Ki [1, 9]: < 0.2 µM | melting point: 272 to 274 °C
Structure (SMILES): CCN(CC)C(=O)N1CCN(c2ccc3c(c2)CCC2(CCN(C4CCC4)CC2)O3)CC1 [Example 394]

Ki (human H3 receptor; read-out: Human H3 Ki): < 0.2 µM | Ki ([1]; read-out: Rat H3 kI): < 0.2 µM | melting point: 239 to 241 °C and 239 to 240 °C
Structure (SMILES): O=S1(=O)CCC(Oc2ccc3c(c2)CCC2(CCN(C4CCC4)CC2)O3)CC1 [Example 467]

Ki (human H3 receptor; read-out: Human H3 Ki): < 0.2 µM | Ki ([1]; read-out: Rat H3 kI): < 0.2 µM | melting point: 167 to 169 °C
Structure (SMILES): O=c1[nH]cccc1-c1ccc2c(c1)COC1(CCN(C3CCC3)CC1)O2 [Example 488]

Ki (human H3 receptor; [4]): < 0.2 µM | Ki [1, 5]: < 0.2 µM | melting point: 193 to 195 °C
Structure (SMILES): O=C(NC1CCOCC1)c1ccc(-c2ccc3c(c2)COC2(CCN(C4CCC4)CC2)O3)cc1O [Example 705]

Ki (human H3 receptor; [6]): < 0.2 µM | Ki [1, 7]: < 0.2 µM | melting point: 255 to 257 °C
Structure (SMILES): CNC(=O)c1cc(Oc2ccc3c(c2)CCC2(CCN(C4CCC4)CC2)O3)ccn1 [Example 281]

Ki (human H3 receptor; [8]): < 0.2 µM | Ki [1, 9]: < 0.2 µM | melting point: 233 to 235 °C
Structure (SMILES): O=S(=O)(C1CC1)N1CCC(Oc2ccc3c(c2)CCC2(CCN(C4CCC4)CC2)O3)CC1 [Example 437]

Ki (human H3 receptor; [2]): < 0.2 µM | Ki [1, 3]: < 0.2 µM | melting point: 59 to 62 °C
Structure (SMILES): O=C(c1ccc(-c2ccc3c(c2)COC2(CCN(C4CCC4)CC2)O3)cc1)N1CCCCC1 [Example 27]

Ki (human H3 receptor; read-out: Human H3 Ki): < 0.2 µM | Ki ([1]; read-out: Rat H3 kI): < 0.2 µM | melting point: 263 to 265 °C
Structure (SMILES): CCOC(=O)C1CC=C(c2ccc3c(c2)COC2(CCN(C4CCC4)CC2)O3)CC1 (stereo not drawn) [Example 487]

Ki (human H3 receptor; [4]): < 0.2 µM | Ki [1, 5]: < 0.2 µM | melting point: 130 to 132 °C
Structure (SMILES): O=c1cc(-c2ccc3c(c2)COC2(CCN(C4CCC4)CC2)O3)c(Cl)c[nH]1 [Example 667]

Ki (human H3 receptor; [6]): < 0.2 µM | Ki [1, 7]: < 0.2 µM | melting point: 153 to 155 °C
Structure (SMILES): CN(C)C(=O)N1CCN(c2ccc3c(c2)COC2(CCN(C4CCC4)CC2)O3)CC1 [Example 287]
